From patent US10851112B2, “Anti-HCMV virus compound” (MEDSHINE DISCOVERY INC., priority 2016, dated 2020)

Tests used:
[1] = test system: HCMV viruses (strain: GFP-AD169); experiment: Human cytomegalovirus (HCMV) transplantation model in mouse; format: in vivo; conditions: NOD SCID mice, oral 8 mg/kg once a day, 1st to 9th day, plaque detection in gelatin sponge
Description: Human Cytomegalovirus (HCMV) Transplantation Model in Mouse
A gelatin sponge containing HCMV was transplanted into mice. After 9 days of continuous administration, the gelatin sponge was collected for plaque detection. The anti-HCMV effect of the compound in the model was evaluated by determining the amount of HCMV in the gelatin sponge.
The animals selected for the experiment were NOD SCID mice (purchased from Shanghai Slac Laboratory Animal Co., Ltd.), 5 weeks, male, 5 animals per group. The day when the mice were transplanted with gelatin sponge was set to be day 0. Human foreskin fibroblasts (HFF, MOI=0.03) were previously infected with HCMV viruses (strain: GFP-AD169). The HMV cells infected with HCMV were added to a 1 cm^2 gelatin sponge for incubation. Animals were anesthetized by intraperitoneal injection of pentobarbital sodium at a dose of 75 mg/kg (10 mL/kg). After the animals entered deep anesthesia, the prepared gelatin sponge was subcutaneously transplanted into the back of the mice. From 1st day to 9th day, the mice were orally administered with the test compound at a dose of 8 mg/kg (10 mL/kg) once a day. At 4 hours after the administration on the 9th day, the gelatin sponge was taken out and digested. The plaque was detected.

[2] = test system: US3-6-EGFP-HCMV-AD169 viruses; experiment: Fluorescence decay assay against human cytomegalovirus; format: cell-based, human cytomegalovirus (HCMV); conditions: Human betaherpesvirus 5, AD169, MRC5, 240 h
Description: Fluorescence Decay Assay Against Human Cytomegalovirus
The antiviral activity of the compound against human cytomegalovirus (HCMV) was evaluated by determining the half maximal effective concentration (EC50) of the compound. The HCMV used in this assay was inserted with enhanced green fluorescent protein (EGFP) by gene recombination, so the viral replication in cells could be reflected by the expression level of GFP. The inhibitory activity of the compound on HCMV GFP expression was evaluated by determining the fluorescence intensity in the wells of different concentrations of the compound using a high content cell analysis platform Acumen eX3.
Fluorescence Decay Assay Against HCMV
MRC5 cells were inoculated into a black 96-well cell culture plate at a density of 20,000 cells per well. The plate was incubated overnight in a 37° C., 5% CO2 incubator. US3-6-EGFP-HCMV-AD169 viruses were added to the cell culture well at a certain MOI (0.003-0.1) and the plate was incubated for 3 hours in a 37° C., 5% CO2 incubator. After adsorption of viruses, the medium containing viruses was aspirated and 200 μL of cell culture medium containing different concentrations of the compound (4-fold dilution, 6 test concentrations) was added. The final concentration of DMSO in the medium was 1%. Virus control wells (with DMSO added, but no compound was added) and inhibition control wells (with a high concentration of control compound added) were set. The cell plate was incubated for 10 days in a 37° C., 5% CO2 incubator and the liquid was renewed on the 4th day and 7th day. After 10 days of culture, the fluorescence intensity was determined using a high content cell analysis platform Acumen eX3 (TTP LabTech). The original data was used for calculating the antiviral activity of the compound.
The inhibition % was imported into GraphPad Prism software for data processing to give a corresponding dose-response curve for the compound and the EC50 of the test compound was obtained.

[3] = Plasma protein binding rate test, equilibrium dialysis, human plasma; format: in vitro ADME; conditions: equilibrium dialysis 37° C. 4 hours, read-out: plasma protein binding PPB bound (%) (converted)
Description: (§1) Plasma Protein Binding Rate Test of the Compound
(§2) The protein binding rate of the test compound in CD-1 mice, SD rats, and human plasma was evaluated by equilibrium dialysis. The test compound was diluted into the plasma of the above three species respectively to prepare a sample with a final concentration of 2 μM. The sample was added to a 96-well equilibrium dialysis device, and dialyzed using a phosphate buffer solution at 37° C. for 4 hours. Warfarin was used as a control compound in the experiment. The concentration of the test compound and warfarin in the plasma and the buffer was determined by LC-MS/MS.

[4] = Plasma protein binding rate test, equilibrium dialysis, SD rat plasma; format: in vitro ADME; conditions: rat plasma (R), equilibrium dialysis 37° C. 4 hours, read-out: plasma protein binding PPB bound (%) (converted)
Description: as §1, §2

[5] = Plasma protein binding rate test, equilibrium dialysis, CD-1 mouse plasma; format: in vitro ADME; conditions: mouse plasma (M), equilibrium dialysis 37° C. 4 hours, read-out: plasma protein binding PPB bound (%) (converted)
Description: as §1, §2

Structure (SMILES)	decrease in HCMV viral load [1] [log PFU/mL]	EC50 [2] [nM]	fraction unbound at 4 h, 2 μM [3]	fraction unbound at 4 h, 2 μM [4]	fraction unbound at 4 h, 2 μM [5]
COc1cc(N2CCN(C3=Nc4cscc4[C@H](CC(=O)O)N3c3cc(C(F)(F)F)ccc3OC)C[C@H]2C)ccn1 (single isomer, unassigned) [WX-151]	2.30	0.503	0.047	0.05	0.011
COc1cc(N2CCN(C3=Nc4ccsc4[C@H](CC(=O)O)N3c3cc(C(F)(F)F)ccc3OC)C[C@H]2C)ccn1 (single isomer, unassigned) [WX-141]	2.38	0.2	0.06	0.061	0.017
COc1cc(N2[C@H](C)CN(C3=Nc4ccsc4[C@H](CC(=O)O)N3c3cc(C(F)(F)F)ccc3OC)C[C@@H]2C)ccn1 (single isomer, unassigned) [WX-161]		0.317	0.02	0.023	0.004
COc1ccnc(N2CCN(C3=Nc4ccsc4[C@H](CC(=O)O)N3c3cc(C(F)(F)F)ccc3OC)C[C@H]2C)c1 (single isomer, unassigned) [WX-139]		3	0.06	0.041	0.014
COc1cc(N2CCN(C3=Nc4c(csc4F)[C@H](CC(=O)O)N3c3cc(C(F)(F)F)ccc3OC)C[C@H]2C)ccn1 (single isomer, unassigned) [WX-147]		0.17	0.018	0.014	0.002
COc1ccnc(N2CCN(C3=Nc4c(csc4F)[C@H](CC(=O)O)N3c3cc(C(F)(F)F)ccc3OC)C[C@H]2C)c1 (single isomer, unassigned) [WX-145]		2	0.023	0.014	0.001
COc1cc(N2CCN(C3=Nc4ccsc4[C@@H](CC(=O)O)N3c3cc(C(F)(F)F)ccc3OC)C[C@H]2C)ccc1F (single isomer, unassigned) [WX-200]		> 10			
COc1cccc(N2CCN(C3=Nc4ccsc4[C@H](CC(=O)O)N3c3cc(C(F)(F)F)ccc3OC)C[C@H]2C)c1 (single isomer, unassigned) [WX-136]	2.33	0.17			
COc1ccc(C(F)(F)F)cc1N1C(N2CCC(F)(c3ccc(F)cc3)CC2)=Nc2ccsc2[C@H]1CC(=O)O (single isomer, unassigned) [WX-089]		> 1000			
COc1cccc(N2CCN(C3=Nc4cscc4[C@H](CC(=O)O)N3c3cc(C(F)(F)F)ccc3OC)C[C@H]2C)c1 (single isomer, unassigned) [WX-204]		0.172			
COc1cc(N2CCN(C3=Nc4c(csc4F)[C@H](CC(=O)O)N3c3cc(C(F)(F)F)ccc3OC)C[C@H]2C)ncn1 (single isomer, unassigned) [WX-149]		0.67	0.024	0.017	0.002
COc1cc(N2CCN(C3=Nc4ccsc4[C@H](CC(=O)O)N3c3cc(C(F)(F)F)ccc3OC)C[C@H]2C)ncn1 (single isomer, unassigned) [WX-143]		0.89	0.069	0.066	0.015
COc1cc(N2CCN(C3=Nc4c(C)csc4[C@H](CC(=O)O)N3c3cc(C(F)(F)F)ccc3OC)C[C@H]2C)ccn1 (single isomer, unassigned) [WX-153]		0.26	0.019	0.02	0.011
COc1cccc(N2CCN(C3=Nc4c(csc4F)[C@H](CC(=O)O)N3c3cc(C(F)(F)F)ccc3OC)C[C@H]2C)c1 (single isomer, unassigned) [WX-132]		0.15	0.022	0.017	0.011
COc1cc(N2CCN(C3=Nc4ccsc4[C@H](CC(=O)O)N3c3cc(C(F)(F)F)ccc3OC)CC2)ccn1 (single isomer, unassigned) [WX-109]		4	0.097	0.108	0.055
COc1cccc(N2CCN(C3=Nc4ccsc4[C@H](CC(=O)O)N3c3cc(C(F)(F)F)ccc3OC)CC2)c1 (single isomer, unassigned) [WX-088]		2	0.024	0.028	0.022
COc1cncc(N2CCN(C3=Nc4ccsc4[C@H](CC(=O)O)N3c3cc(C(F)(F)F)ccc3OC)C[C@H]2C)c1 (single isomer, unassigned) [WX-137]		31			
CC[C@@H]1CN(C2=Nc3ccsc3[C@H](CC(=O)O)N2c2cc(C(F)(F)F)ccc2OC)CCN1c1cccc(OC)c1 (single isomer, unassigned) [WX-170]		0.264			
